Assay results reported in patent US11639350B2, “Heteroaryldihydropyrimidine derivatives and methods of treating hepatitis B infections” (Janssen Pharmaceutica NV, priority 2018, dated 2023).
Read-outs that look alike come from different tables or passages of the source.

Experiments:
[1] = test system: HBV; experiment: HBV inhibitory activity: HBV DNA in the culture medium of HepG2.2.15 cells by q-PCR; format: cell-based; settings: HepG2.2.15 cells, 6 days of compound treatment, HBV DNA in culture medium by q-PCR, highest concentration 10 μM, read-out: EC50
Summary of the method: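 HepG2.2.15 cells in 2% FBS medium, 40,000 per well, treated 6 days with compound (medium refreshed once), eight 3-fold dilutions from 10 μM top. HBV DNA extracted from culture medium and quantified by q-PCR; EC50 averaged over repeats. Cytotoxicity run in parallel at 5,000 cells per well, top 100 μM, giving CC50.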

[2] = Cytotoxicity determination in HepG2.2.15 cells (CCK-8); format: cell-based; settings: human, 6 days of compound treatment, CCK-8, highest concentration 100 μM
Summary of the method: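 HepG2.2.15 cells seeded at 5,000 cells/well in 2% FBS medium, incubated overnight at 37° C., then treated 6 days with compounds (8 points, 3-fold dilutions, top 100 μM), medium refreshed once midway. CCK-8 added for 2.5 h; A450 read against 630 nm reference; CC50 calculated, averaged over repeats.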

[3] = Hepatitis B virus, HepG2.2.15, 144 h

Row | SMILES | EC50 [1, 3] | CC50 at 6 days [2] | EC50 [1]
1 | COC(=O)C1=C([C@H]2CC[C@H](NS(C)(=O)=O)CC2)NC(c2nccs2)=NC1c1ccc(F)cc1Cl (single isomer, unassigned) [Compound 126B, Methyl 4-(2-chloro-4-fluorophenyl)-6-(trans-4-(methyl-sulfonamido)cyclohexyl)-2-(thiazol-2-yl)-1,4-dihydropyrimidine-5-carboxylate] | 343 nM | 31.8 µM | –
2 | COC(=O)C1=C(C2CCN(S(=O)(=O)[C@H]3C[C@H](C(=O)O)C3)CC2)NC(c2nccs2)=NC1c1ccc(F)c(F)c1C (stereo partly drawn) [Compound 309C, (trans)-3-((4-(6-(3,4-Difluoro-2-methylphenyl)-5-(methoxycarbonyl)-2-(thiazol-2-yl)-3,6-dihydropyrimidin-4-yl)piperidin-1-yl)sulfonyl)cyclobutanecarboxylic Acid] | 47 nM | 36.2 µM | –
3 | COC(=O)C1=C(C2CCN(S(=O)(=O)CCC(=O)O)CC2)NC(c2nccs2)=NC1c1cccc(F)c1Cl (stereo not shown) [Compound 114, 3-((4-(6-(2-Chloro-3-fluorophenyl)-5-(methoxycarbonyl)-2-(thiazol-2-yl)-3,6-dihydro-pyrimidin-4-yl)piperidin-1-yl)sulfonyl)propanoic Acid] | 40 nM | 27.5 µM | –
4 | COC(=O)C1=C(C23CC(NS(=O)(=O)c4cccc(C(=O)O)c4)(C2)C3)NC(c2nccs2)=NC1c1ccc(F)cc1Cl (stereo not shown) [Compound 208B, 3-(N-(3-(6-(2-Chloro-4-fluorophenyl)-5-(methoxycarbonyl)-2-(thiazol-2-yl)-3,6-dihydropyrimidin-4-yl)bicyclo[1.1.1]pentan-1-yl)sulfamoyl)benzoic acid] | 280 nM | > 100 µM | –
5 | CCOC(=O)C1=C([C@H]2CC[C@H](C(N)=O)CC2)NC(c2nccs2)=NC1c1ccc(F)cc1Cl (stereo partly drawn) [Compound 163, (trans)-ethyl 6-(−4-carbamoylcyclohexyl)-4-(2-chloro-4-fluorophenyl)-2-(thiazol-2-yl)-1,4-dihydropyrimidine-5-carboxylate] | 65 nM | 23.9 µM | –
6 | COC(=O)C1=C([C@H]2CC[C@H](N(CCO)S(C)(=O)=O)CC2)NC(c2nccs2)=NC1c1ccc(F)c(F)c1Cl (single isomer, unassigned) [Compound 315D, (trans)-Methyl 4-(2-chloro-3,4-difluorophenyl)-6-(4-(N-(2-hydroxyethyl)methylsulfonamido)cyclohexyl)-2-(thiazol-2-yl)-1,4-dihydropyrimidine-5-carboxylate] | 25 nM | 12.6 µM | –
7 | COC(=O)C1=C(C2CCCO2)NC(c2nccs2)=NC1c1ccc(F)cc1Cl (single isomer, unassigned) [Compound 70D, Methyl 4-(2-chloro-4-fluorophenyl)-6-(tetrahydrofuran-2-yl)-2-(thiazol-2-yl)-1,4-dihydropyrimidine-5-carboxylate] | 140 nM | 22.6 µM | –
8 | CCOC(=O)C1=C([C@H]2CC[C@H](C(=O)OC)CC2)NC(c2nccs2)=NC1c1cccc(F)c1Cl (relative stereo) [Compound 22Y, Ethyl 4-(2-chloro-3-fluorophenyl)-6-(trans-4-(methoxycarbonyl)-cyclohexyl)-2-(thiazol-2-yl)-1,4-dihydropyrimidine-5-carboxylate] | 224 nM | 75.9 µM | –
9 | COC(=O)C1=C(C2CC2)NC(c2nccs2)=NC1c1ccc(F)cc1Cl (single isomer, unassigned) [Compound 90A, Methyl 4-(2-chloro-4-fluorophenyl)-6-cyclopropyl-2-(thiazol-2-yl)-1,4-dihydropyrimidine-5-carboxylate] | 23 nM | 26.7 µM | –
10 | COC(=O)C1=C(C2CCN(C(=O)CNC(=O)OC(C)(C)C)CC2)NC(c2nccs2)=NC1c1ccc(F)cc1Cl (stereo not shown) [Compound 129, 6-[1-(2-tert-Butoxycarbonylamino-acetyl)-piperidin-4-yl]-4-(2-chloro-4-fluoro-phenyl)-2-thiazol-2-yl-1,4-dihydro-pyrimidine-5-carboxylic Acid Methyl Ester] | 55 nM | 28.2 µM | –
11 | COC(=O)C1=C([C@H]2CC[C@@H](NS(C)(=O)=O)CC2)NC(c2ncc(F)cc2F)=NC1c1ccc(F)cc1Cl (mixture of isomers) [Compound 399, (cis)-Methyl 4-(2-chloro-4-fluorophenyl)-2-(3,5-difluoropyridin-2-yl)-6-(4-(methylsulfonamido)cyclohexyl)-1,4-dihydropyrimidine-5-carboxylate] | 33 nM | 36.8 µM | –
12 | COC(=O)C1=C([C@H]2CC[C@H](S(=O)(=O)N3CC[C@@H](C(=O)O)C3)CC2)NC(c2nccs2)=NC1c1ccc(F)c(F)c1Cl (stereo in doubt) [Compound 293C, (trans)-1-((4-((R)-6-(2-Chloro-3,4-difluorophenyl)-5-(methoxycarbonyl)-2-(thiazol-2-yl)-3,6-dihydropyrimidin-4-yl)cyclohexyl)-sulfonyl)pyrrolidine-3-carboxylic Acid] | 150 nM | 85.7 µM | –
13 | COC(=O)C1=C(C2CCN(S(=O)(=O)c3cn[nH]c3)CC2)NC(c2nccs2)=NC1c1cccc(F)c1Cl (stereo not shown) [Compound 158A, methyl 6-(1-((1H-pyrazol-4-yl)sulfonyl)piperidin-4-yl)-4-(2-chloro-3-fluorophenyl)-2-(thiazol-2-yl)-1,4-dihydropyrimidine-5-carboxylate] | 9 nM | 12.7 µM | –
14 | COC(=O)C1=C([C@H]2CC[C@H](CC(=O)O)CC2)NC(c2nccs2)=NC1c1cccc(F)c1Cl (relative stereo) [Compound 29, 2-(trans-4-(6-(2-Chloro-3-fluorophenyl)-5-(methoxycarbonyl)-2-(thiazol-2-yl)-3,6-dihydropyrimidin-4-yl)cyclohexyl)acetic Acid] | 123 nM | 33.6 µM | –
15 | COC(=O)C1=C([C@H]2CCC[C@@H](CO)C2)NC(c2nccs2)=NC1c1ccc(F)cc1Cl (single isomer, unassigned) [Compound 173A, Methyl 4-(2-chloro-4-fluorophenyl)-6-((cis)-3-(hydroxymethyl)cyclohexyl)-2-(thiazol-2-yl)-1,4-dihydropyrimidine-5-carboxylate] | 76 nM | 18.6 µM | –
16 | COC(=O)C1=C(C2CCCC3(C2)OCCO3)NC(c2nccs2)=NC1c1ccc(F)cc1Cl (stereo not shown) [Compound 218, Methyl 4-(2-chloro-4-fluorophenyl)-6-(1,4-dioxaspiro[4.5]decan-7-yl)-2-(thiazol-2-yl)-1,4-dihydropyrimidine-5-carboxylate] | 148 nM | 29.7 µM | –
17 | CCOC(=O)C1=C([C@H]2CC[C@H](C(=O)O)CO2)NC(c2nccs2)=NC1c1ccc(F)cc1Cl (single isomer, unassigned) [Compound 363E, (trans)-6-(−6-(2-Chloro-4-fluorophenyl)-5-(ethoxycarbonyl)-2-(thiazol-2-yl)-3,6-dihydropyrimidin-4-yl)tetrahydro-2H-pyran-3-carboxylic Acid] | – | > 100 µM | 296 nM
18 | COC(=O)C1=C([C@H]2CC[C@H](S(=O)(=O)NCCO)CC2)NC(c2nccs2)=NC1c1ccc(F)c(F)c1Cl (single isomer, unassigned) [Compound 291C, (trans)-Methyl 4-(2-chloro-3,4-difluorophenyl)-6-(4-(N-(2-hydroxyethyl)sulfamoyl)cyclohexyl)-2-(thiazol-2-yl)-1,4-dihydropyrimidine-5-carboxylate] | 16 nM | 12 µM | –
19 | CCOC(=O)C1=C([C@@H]2CCC[C@H](C(=O)O)CC2)NC(c2nccs2)=NC1c1ccc(F)c(F)c1Cl (relative stereo) [Compound 302C, (cis)-4-(−6-(2-Chloro-3,4-difluorophenyl)-5-(ethoxycarbonyl)-2-(thiazol-2-yl)-3,6-dihydropyrimidin-4-yl)cycloheptanecarboxylic Acid] | 50 nM | 10.2 µM | –
20 | COC(=O)C1=C(C2CCN(S(=O)(=O)c3cnn(CC(O)C(F)(F)F)c3)CC2)NC(c2nccs2)=NC1c1ccc(F)c(F)c1Cl (stereo not shown) [Compound 325, Methyl 4-(2-chloro-3,4-difluorophenyl)-2-(thiazol-2-yl)-6-(1-((1-(3,3,3-trifluoro-2-hydroxypropyl)-1H-pyrazol-4-yl)sulfonyl)piperidin-4-yl)-1,4-dihydropyrimidine-5-carboxylate] | 5 nM | 7.9 µM | –
21 | CCOC(=O)C1=C(C2[C@H]3CN(S(C)(=O)=O)C[C@@H]23)NC(c2nccs2)=NC1c1ccc(F)cc1Cl (single isomer, unassigned) [Compound 41A] | 514 nM | 11.6 µM | –
22 | COC(=O)C1=C([C@H]2C[C@@H](CO)CO2)NC(c2nccs2)=NC1c1cccc(F)c1Cl (relative stereo) [Compound 221, (cis)-Methyl 4-(2-chloro-3-fluorophenyl)-6-(4-(hydroxymethyl)tetrahydrofuran-2-yl)-2-(thiazol-2-yl)-1,4-dihydropyrimidine-5-carboxylate] | 53 nM | 47.1 µM | –
23 | COC(=O)C1=C(C2CN(S(=O)(=O)c3ccccc3)C2)NC(c2nccs2)=NC1c1ccc(F)cc1Cl (stereo not shown) [Compound 130, 6-(1-Benzenesulfonyl-azetidin-3-yl)-4-(2-chloro-4-fluoro-phenyl)-2-thiazol-2-yl-1,4-dihydro-pyrimidine-5-carboxylic acid methyl ester] | 550 nM | > 10 µM | –
